In PubChem BioAssay AID1963445 (Molecular Pharmacology Branch, DTP, NCI, 2024):

Test system: MCF7 complex spheroid growth, % test/control
Assay: Anticancer human tumor MCF7 cell line growth inhibition [Asc];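 further: spheroids exposed to compounds for 7 days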;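 on viability, T/C: 100% = DMSO vehicle control wells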
Details: for IC50: curve of first compound; for viability, T/C: stronger effect = lower value
Outline: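 Stromal components (HUVEC and hMSC) are co-assembled with the cancer cells into multicellular spheroids. Drugs are then added singly or paired, at concentrations falling by half-log increments from a clinically achievable maximum, capped at 10 microM without known Cmax.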

For `C=CC(=O)N1CCN(c2nc(=O)n(-c3c(C)ccnc3C(C)C)c3nc(-c4c(O)cccc4F)c(F)cc23)C(C)C1` (configuration not stated) + Cc1c(S(C)(=O)=O)c(-c2cc(F)cc(N3CCN(c4ccc(NS(=O)(=O)c5ccc(NC(CCN6CCC(C(=O)OCCCP(=O)(O)O)CC6)CSc6ccccc6)c(S(=O)(=O)C(F)(F)F)c5)cc4)CC3)c2)c(-c2ccc(Cl)cc2)n1C(C)C, the IC50 (second compound 0.0316 µM) was over 10 µM, the IC50 (second compound 0.1 µM) was over 10 µM and the IC50 (second compound 0.316 µM) was over 10 µM. For the same compound, the IC50 (second compound 1 µM) was over 10 µM, the IC50 (second compound 3.16 µM) was over 10 µM and the IC50 (second compound 10 µM) was over 10 µM. The viability, T/C (second compound 0.0316 µM, first compound 0.0316 µM) was 101%, the viability, T/C (second compound 0.0316 µM, first compound 0.1 µM) was 105% and the viability, T/C (second compound 0.0316 µM, first compound 0.316 µM) was 99.7%. It also gave a viability, T/C (second compound 0.0316 µM, first compound 1 µM) of 95.5%, a viability, T/C (second compound 0.0316 µM, first compound 3.16 µM) of 112% and a viability, T/C (second compound 0.0316 µM, first compound 10 µM) of 85.8%. The viability, T/C (second compound 0.1 µM, first compound 0.0316 µM) was 92.9%, the viability, T/C (second compound 0.1 µM, first compound 0.1 µM) was 89.6% and the viability, T/C (second compound 0.1 µM, first compound 0.316 µM) was 89%. For the same compound, the viability, T/C (second compound 0.1 µM, first compound 1 µM) was 110%, the viability, T/C (second compound 0.1 µM, first compound 3.16 µM) was 92.3% and the viability, T/C (second compound 0.1 µM, first compound 10 µM) was 87.4%. The viability, T/C (second compound 0.316 µM, first compound 0.0316 µM) was 101%, the viability, T/C (second compound 0.316 µM, first compound 0.1 µM) was 92.7% and the viability, T/C (second compound 0.316 µM, first compound 0.316 µM) was 109%. For the same compound, the viability, T/C (second compound 0.316 µM, first compound 1 µM) was 90.1%, the viability, T/C (second compound 0.316 µM, first compound 3.16 µM) was 89.5% and the viability, T/C (second compound 0.316 µM, first compound 10 µM) was 81.3%. The viability, T/C (second compound 1 µM, first compound 0.0316 µM) was 87.2%, the viability, T/C (second compound 1 µM, first compound 0.1 µM) was 91.4% and the viability, T/C (second compound 1 µM, first compound 0.316 µM) was 102%. The viability, T/C (second compound 1 µM, first compound 1 µM) was 97.4%, the viability, T/C (second compound 1 µM, first compound 3.16 µM) was 101% and the viability, T/C (second compound 1 µM, first compound 10 µM) was 89.9%. For the same compound, the viability, T/C (second compound 3.16 µM, first compound 0.0316 µM) was 92.9%, the viability, T/C (second compound 3.16 µM, first compound 0.1 µM) was 94.9% and the viability, T/C (second compound 3.16 µM, first compound 0.316 µM) was 103%. It also gave a viability, T/C (second compound 3.16 µM, first compound 1 µM) of 94.1%, a viability, T/C (second compound 3.16 µM, first compound 3.16 µM) of 89.5% and a viability, T/C (second compound 3.16 µM, first compound 10 µM) of 86.1%. The viability, T/C (second compound 10 µM, first compound 0.0316 µM) was 222%, the viability, T/C (second compound 10 µM, first compound 0.1 µM) was 143% and the viability, T/C (second compound 10 µM, first compound 0.316 µM) was 171%. For the same compound, the viability, T/C (second compound 10 µM, first compound 1 µM) was 195%, the viability, T/C (second compound 10 µM, first compound 3.16 µM) was 233% and the viability, T/C (second compound 10 µM, first compound 10 µM) was 168%.
